Test system: Swiss mice, Sarcoma 180 sc, mean tumor weight T/C
Assay: NCI In Vivo Anticancer Drug Screen. Data for tumor model Sarcoma 180 (subcutaneous) in Swiss mice
Details: endpoint: mean tumor weight, higher = larger tumour
Description: The antitumor activity of compounds was measured in mice bearing transplantable tumors. Survival or tumor size were measured and the results are expressed as the measurement made in the treated group (T) divided by the measurement made in the vehicle treated control group (C). The tumor model used in this assay is Sarcoma 180 (subcutaneous) in Swiss mice

[1] = dose: 125.0 mg/kg/injection, schedule: Q01DX007 (ip), vehicle: saline
[2] = dose: 500.0 mg/kg/injection, schedule: Q01DX007 (ip), vehicle: saline
[3] = dose: 125.0 mg/kg/injection, schedule: Q01DX007 (ip), vehicle: carboxymethylcellulose (CMC)
[4] = dose: 250.0 mg/kg/injection, schedule: Q01DX007 (ip), vehicle: carboxymethylcellulose (CMC)
[5] = dose: 40.0 mg/kg/injection, schedule: Q01DX007 (ip), vehicle: carboxymethylcellulose (CMC)
[6] = dose: 750.0 mg/kg/injection, schedule: Q01DX007 (ip), vehicle: saline
[7] = dose: 100.0 mg/kg/injection, schedule: Q01DX007 (ip), vehicle: saline
[8] = dose: 148.0 mg/kg/injection, schedule: Q01DX007 (ip), vehicle: saline

Question: With `CC(C)(C)C(=O)/C=C/c1ccc([N+](=O)[O-])cc1` as the compound, how does the T/C (dose: 50.0 mg/kg/injection, schedule: Q#A X014 (ip), vehicle: methylcellulose (MC)) read?
Answer: 92 % of control

Question: What about the T/C (dose: 187.5 mg/kg/injection, schedule: Q#A X014 (ip), vehicle: methylcellulose (MC)) of the same compound?
Answer: 70 % of control

Question: How did the T/C [1] turn out when `C[N+]1(CCC[N+]2(C)C[C@@H]3[C@H](C2)[C@@H]2C=C[C@H]3C2)CCOCC1` (stereo partly drawn) was run?
Answer: 95 % of control

Question: And the T/C [2]?
Answer: 111 % of control

Question: Which results are given for `CC(=O)Nc1cc2oc3ccccc3c2cc1[N+](=O)[O-]`?
Answer: T/C (dose: 220.0 mg/kg/injection, schedule: Q01DX007 (ip), vehicle: methylcellulose (MC)): 67 % of control; T/C (dose: 335.0 mg/kg/injection, schedule: Q01DX007 (ip), vehicle: methylcellulose (MC)): 67 % of control; T/C (dose: 400.0 mg/kg/injection, schedule: Q01DX007 (ip), vehicle: methylcellulose (MC)): 72 % of control; T/C (dose: 500.0 mg/kg/injection, schedule: Q01DX007 (ip), vehicle: methylcellulose (MC)): 52 % of control; T/C (dose: 600.0 mg/kg/injection, schedule: Q01DX007 (ip), vehicle: methylcellulose (MC)): 77 % of control

Question: Which results are given for `CC(=O)OCC(=O)[C@@]1(O)CC[C@H]2[C@@H]3C[C@H](C)C4=CC(=O)C=C[C@]4(C)[C@@]3(F)[C@@H](O)C[C@@]21C`?
Answer: T/C (dose: 125.0 mg/kg/injection, schedule: Q01DX007 (sc), vehicle: steriod suspending solution): 41 % of control; T/C (dose: 187.0 mg/kg/injection, schedule: Q01DX007 (sc), vehicle: steriod suspending solution): 30 % of control

Question: For `COC(=O)c1ccccc1NC(c1ccccn1)c1ccc2cccnc2c1O` (stereo not drawn), which T/C (dose: 62.0 mg/kg/injection, schedule: Q01DX007 (ip), vehicle: carboxymethylcellulose (CMC)) is on record?
Answer: 115 % of control

Question: And the T/C [3]?
Answer: 104 % of control

Question: And the T/C [4]?
Answer: 88 % of control

Question: And the T/C (dose: 500.0 mg/kg/injection, schedule: Q01DX007 (ip), vehicle: carboxymethylcellulose (CMC))?
Answer: 88 % of control

Question: How did the T/C (dose: 4.0 mg/kg/injection, schedule: Q01DX007 (ip), vehicle: carboxymethylcellulose (CMC)) turn out when `CSc1nc(C)c(Br)c(Sc2nc(N)nc3nc[nH]c23)n1` was run?
Answer: 91 % of control

Question: What about the T/C (dose: 5.0 mg/kg/injection, schedule: Q01DX007 (ip), vehicle: carboxymethylcellulose (CMC)) of the same compound?
Answer: 84 % of control

Question: What about the T/C (dose: 5.5 mg/kg/injection, schedule: Q#A X014 (ip), vehicle: carboxymethylcellulose (CMC)) of the same compound?
Answer: 43 % of control

Question: What about the T/C (dose: 5.5 mg/kg/injection, schedule: Q#A X014 (ip), vehicle: methylcellulose (MC)) of the same compound?
Answer: 24 % of control

Question: And the T/C (dose: 6.0 mg/kg/injection, schedule: Q01DX007 (ip), vehicle: carboxymethylcellulose (CMC))?
Answer: 90 % of control

Question: What about the T/C (dose: 6.2 mg/kg/injection, schedule: Q01DX007 (ip), vehicle: carboxymethylcellulose (CMC)) of the same compound?
Answer: 77 % of control

Question: And the T/C (dose: 7.0 mg/kg/injection, schedule: Q01DX007 (ip), vehicle: carboxymethylcellulose (CMC))?
Answer: 66 % of control

Question: What about the T/C (dose: 8.5 mg/kg/injection, schedule: Q#A X014 (ip), vehicle: carboxymethylcellulose (CMC)) of the same compound?
Answer: 33 % of control

Question: What about the T/C (dose: 8.5 mg/kg/injection, schedule: Q#A X014 (ip), vehicle: methylcellulose (MC)) of the same compound?
Answer: 57 % of control

Question: What about the T/C (dose: 11.0 mg/kg/injection, schedule: Q01DX007 (ip), vehicle: carboxymethylcellulose (CMC)) of the same compound?
Answer: 74 % of control

Question: And the T/C (dose: 12.5 mg/kg/injection, schedule: Q01DX007 (ip), vehicle: carboxymethylcellulose (CMC))?
Answer: 69 % of control

Question: And the T/C (dose: 12.5 mg/kg/injection, schedule: Q#A X014 (ip), vehicle: carboxymethylcellulose (CMC))?
Answer: 24 % of control

Question: And the T/C (dose: 12.5 mg/kg/injection, schedule: Q#A X014 (ip), vehicle: methylcellulose (MC))?
Answer: 16 % of control

Question: And the T/C (dose: 17.0 mg/kg/injection, schedule: Q01DX007 (ip), vehicle: carboxymethylcellulose (CMC))?
Answer: 31 % of control

Question: And the T/C (dose: 18.5 mg/kg/injection, schedule: Q#A X014 (ip), vehicle: carboxymethylcellulose (CMC))?
Answer: 18 % of control

Question: What about the T/C (dose: 18.5 mg/kg/injection, schedule: Q#A X014 (ip), vehicle: methylcellulose (MC)) of the same compound?
Answer: 7 % of control

Question: And the T/C (dose: 25.0 mg/kg/injection, schedule: Q01DX007 (ip), vehicle: carboxymethylcellulose (CMC))?
Answer: 20 % of control

Question: And the T/C (dose: 37.0 mg/kg/injection, schedule: Q01DX007 (ip), vehicle: carboxymethylcellulose (CMC))?
Answer: 22 % of control

Question: What about the T/C [5] of the same compound?
Answer: 52 % of control

Question: What about the T/C (dose: 60.0 mg/kg/injection, schedule: Q01DX007 (ip), vehicle: carboxymethylcellulose (CMC)) of the same compound?
Answer: 46 % of control

Question: What does the source list for `c1ccc2nc3ccccc3c-2cc1`?
Answer: T/C (dose: 62.5 mg/kg/injection, schedule: Q01DX007 (ip), vehicle: saline): 118 % of control; T/C [1]: 106 % of control; T/C (dose: 250.0 mg/kg/injection, schedule: Q01DX007 (ip), vehicle: saline): 113 % of control; T/C [6]: 85 % of control; T/C (dose: 1000.0 mg/kg/injection, schedule: Q01DX007 (ip), vehicle: saline): 68 % of control

Question: Which T/C (dose: 62.5 mg/kg/injection, schedule: Q01DX007 (ip), vehicle: methylcellulose (MC)) does the source give for `CCOC(=O)C(Cc1ccccc1)c1ccc(Cl)cc1` (stereo not drawn) here?
Answer: 67 % of control

Question: And the T/C (dose: 125.0 mg/kg/injection, schedule: Q01DX007 (ip), vehicle: methylcellulose (MC))?
Answer: 75 % of control

Question: And the T/C (dose: 250.0 mg/kg/injection, schedule: Q01DX007 (ip), vehicle: methylcellulose (MC))?
Answer: 118 % of control

Question: `Nc1nc(=O)n(C2CC(O)C(CO)O2)cc1F` (stereo not drawn) was tested. Which T/C (dose: 22.0 mg/kg/injection, schedule: Q#A X014 (ip), vehicle: saline) did it give?
Answer: 10 % of control

Question: And the T/C (dose: 33.5 mg/kg/injection, schedule: Q#A X014 (ip), vehicle: saline)?
Answer: 7 % of control

Question: What about the T/C (dose: 50.0 mg/kg/injection, schedule: Q#A X014 (ip), vehicle: saline) of the same compound?
Answer: 3 % of control

Question: And the T/C (dose: 75.0 mg/kg/injection, schedule: Q#A X014 (ip), vehicle: saline)?
Answer: 2 % of control

Question: Which results are given for `C/C=C(/C)C(=O)O[C@H]1CCN2CC=C(COC(=O)[C@@](O)([C@H](C)OC)C(C)(C)O)[C@H]12`?
Answer: T/C (dose: 12.0 mg/kg/injection, schedule: Q01DX007 (ip), vehicle: carboxymethylcellulose (CMC)): 117 % of control; T/C (dose: 18.0 mg/kg/injection, schedule: Q01DX007 (ip), vehicle: carboxymethylcellulose (CMC)): 73 % of control; T/C (dose: 26.6 mg/kg/injection, schedule: Q01DX007 (ip), vehicle: carboxymethylcellulose (CMC)): 48 % of control; T/C [5]: 40 % of control

Question: Which results are given for `C=CN1CCCC1=O`?
Answer: T/C (dose: 93.0 mg/kg/injection, schedule: Q01DX007 (ip), vehicle: saline): 106 % of control; T/C (dose: 98.0 mg/kg/injection, schedule: Q01DX007 (ip), vehicle: saline): 70 % of control; T/C [7]: 57 % of control; T/C (dose: 124.0 mg/kg/injection, schedule: Q01DX007 (ip), vehicle: saline): 80 % of control; T/C [8]: 65 % of control; T/C (dose: 150.0 mg/kg/injection, schedule: Q01DX007 (ip), vehicle: saline): 78 % of control; T/C (dose: 166.0 mg/kg/injection, schedule: Q01DX007 (ip), vehicle: saline): 84 % of control; T/C [2]: 9 % of control; T/C [6]: 20 % of control

Question: For `CNNCc1ccc(C(=O)NC(C)C)cc1`, which T/C [7] is on record?
Answer: 26 % of control

Question: And the T/C [3]?
Answer: 36 % of control

Question: And the T/C [8]?
Answer: 22 % of control

Question: What about the T/C (dose: 222.0 mg/kg/injection, schedule: Q01DX007 (ip), vehicle: saline) of the same compound?
Answer: 16 % of control

Question: And the T/C [4]?
Answer: 15 % of control

Question: What about the T/C (dose: 333.0 mg/kg/injection, schedule: Q01DX007 (ip), vehicle: saline) of the same compound?
Answer: 16 % of control

Question: What about the T/C [2] of the same compound?
Answer: 8 % of control

Question: `Cc1nc2nc(N)nc(N)c2nc1C` was tested. Which T/C (dose: 10.0 mg/kg/injection, schedule: Q01DX007 (ip), vehicle: carboxymethylcellulose (CMC)) did it give?
Answer: 89 % of control

Question: And the T/C (dose: 11.46 mg/kg/injection, schedule: Q01DX007 (ip), vehicle: carboxymethylcellulose (CMC))?
Answer: 106 % of control

Question: What about the T/C (dose: 20.0 mg/kg/injection, schedule: Q01DX007 (ip), vehicle: carboxymethylcellulose (CMC)) of the same compound?
Answer: 77 % of control

Question: And the T/C (dose: 22.92 mg/kg/injection, schedule: Q01DX007 (ip), vehicle: carboxymethylcellulose (CMC))?
Answer: 77 % of control

Question: What about the T/C [5] of the same compound?
Answer: 68 % of control

Question: What about the T/C (dose: 45.85 mg/kg/injection, schedule: Q01DX007 (ip), vehicle: carboxymethylcellulose (CMC)) of the same compound?
Answer: 86 % of control

Question: And the T/C (dose: 80.0 mg/kg/injection, schedule: Q01DX007 (ip), vehicle: carboxymethylcellulose (CMC))?
Answer: 81 % of control

Question: And the T/C (dose: 91.7 mg/kg/injection, schedule: Q01DX007 (ip), vehicle: carboxymethylcellulose (CMC))?
Answer: 51 % of control

Question: Which results are given for `Cc1cc(NC(=O)c2ccc(N)cc2)ccc1N=Nc1ccc(N=Nc2ccc3c(O)cc(S(=O)(=O)O)cc3c2)c2cc(S(=O)(=O)O)ccc12`?
Answer: T/C (dose: 12.5 mg/kg/injection, schedule: Q01DX007 (ip), vehicle: water): 110 % of control; T/C (dose: 25.0 mg/kg/injection, schedule: Q01DX007 (ip), vehicle: water): 97 % of control; T/C (dose: 50.0 mg/kg/injection, schedule: Q01DX007 (ip), vehicle: water): 62 % of control
